Where “and” joins values, the source holds several entries; their conditions need not be identical. Identical values can stand only once. Like-named read-outs stand apart in the source and are kept apart here.
Key:
[1] = system: histone acetylation; conditions: 150 mg/kg, at the end of a 3-hour VPA infusion; cited from earlier work
[2] = system: non-lethal TBI and hemorrhagic shock; conditions: 150 mg/kg; cited from earlier work
[3] = Further experiments: infusion of 150 mg/kg over 1 hour, hemodynamic effects; format: in vivo; conditions: 150 mg/kg delivered over 1 hour
[4] = system: lethal model of polytrauma, HS and TBI; assay: Hemodynamics (MAP, adverse hemodynamic effects) in polytrauma, HS and TBI model (Example 1)
Source text: (§1) Bilateral 5-Fr 11-cm arterial catheters and an 8-Fr 11-cm central venous catheter (Super Sheath, Boston Scientific Corporation, Marlborough, Mass.) were placed by femoral cutdown for arterial pressure monitoring, controlled arterial hemorrhage and central venous normal saline (NS; 0.9% sodium chloride solution) administration. An open cystostomy tube was placed for urine output monitoring. The right external jugular vein was then accessed percutaneously under ultrasound guidance, and a pulmonary artery catheter was placed for monitoring of pulmonary artery pressure and cardiac output.
(§2) Treatment groups are outlined in Table 1. […] In order to simulate prolonged field care (PFC) by a combat medic, three times the hemorrhage volume of NS was delivered centrally through femoral vein catheter over 1 hour using the Masterflex pump. […] To simulate delayed evacuation to definitive care after PFC, autologous packed red blood cells (pRBCs) were transfused 3 hours after the completion of shock phase at a rate of 25 mL/hr. Animals were then monitored for an additional 4 hours to simulate time in a critical care unit, after which animals were euthanized with Euthasol (sodium pentobarbital 100 mg/kg, Virbec, Fort Worth, Tex.) if the animal survived to the end of the experiment. Laboratory parameters were monitored, and electrolyte abnormalities (e.g. hyperkalemia and hypoglycemia) were corrected as needed.

[5] = system: polytrauma, hemorrhage and TBI; assay: Survival after IO or IV VPA in polytrauma, hemorrhage and TBI (Example 2); format: in vivo, swine; conditions: 150 mg/kg over 3 hours
Experimental: Animals underwent placement of femoral venous and arterial lines, a pulmonary artery catheter, and open cystostomy for invasive monitoring, hemorrhage and resuscitation. […] The abdomen was then packed, and animal flipped prone in preparation for TBI and hemorrhage. A 12 mm depth TBI was inflicted using a controlled cortical impact device, and the animal was simultaneously hemorrhaged 40% of its estimated blood volume over 20 minutes. At the completion of hemorrhage, the animal was left unresuscitated and in shock for 1 hour to simulate medic response time.
At the end of the shock phase, in order to simulate available resuscitative fluids available in a field care setting, all animals were resuscitated with normal saline via the femoral venous catheter with a standardized volume that was three times the hemorrhaged volume delivered over 1 hour. Animals were randomized to receive either a VPA administered IO (TO group) or administered IV (IV group) or to a control group. […] Placement of the needle was confirmed by aspiration of marrow and subsequent flush of 10 mL normal saline without extravasation. […] Animals were then monitored for another 4 hours to the predetermined end point. […]

[6] = healthy human subjects, 140 mg/kg given over one hour; cited from earlier work
[7] = system: lethal models of trauma; conditions: 300-450 mg/kg; cited from earlier work
[8] = Pharmacokinetic Analysis (TABLE 1 in Example 1); format: in vivo, swine
[9] = system: lethal model of polytrauma, HS and TBI; assay: Survival in lethal swine model of polytrauma, hemorrhage and TBI (Example 1); format: in vivo
Source text: as §1
A 5 cm segment of the left rectus muscle was exposed and crushed using a Kelly clamp to create a soft tissue injury. Femur fracture and liver injury were performed as previously described (Ref. 20; incorporated by reference in its entirety). The mid-femur was exposed and fractured with a 22-gauge captive bolt gun (Ramset Mastershot, Glendale Heights, Ill.) fired point-blank on the femur. A reproducible grade V liver laceration was created with a liver crunch device placed 1 cm lateral to the porta and 7 cm posterior on the dome of the liver. After laceration the liver was allowed to bleed freely for 30 seconds. […] Laparotomy pads were weighed at the end of the experiment to confirm a consistent liver injury (500±50 mL hemorrhage volume).
(§3) The animal was then flipped prone in preparation for TBI and additional hemorrhage. TBI was made by controlled cortical impact (Ref. 21; incorporated by reference in its entirety). A skin flap was raised on the anterior skull to expose the bregma, followed by a 21 mm burr hole on the right side next to the coronal and sagittal sutures to expose the dura. The computer controlled cortical impactor (University of Michigan Innovation Center, Ann Arbor, Mich.) was fired to produce a 10-mm depth injury. A 5-mm burr hole was made on the left for placement of the intracranial pressure (ICP) probe.
Concurrent with TBI, 40% estimated total blood volume was withdrawn over 20 minutes using a Masterflex pump (Cole-Palmer, Vernon Hills, Ill.). The initial 20% blood volume was removed over the first 7 minutes, followed by an additional 20% blood volume at a slower rate over the subsequent 13 minutes. […] Mean arterial pressure (MAP) was maintained between 30-35 mmHg by adjusting the inhaled isoflurane, pausing hemorrhage if MAP persisted <30 mm Hg and giving 50-100 mL fluid boluses of NS.
After completion of hemorrhage, a one-hour shock phase began. This one hour was designed to simulate medic response time from the initial injury. During the shock phase, MAP was again maintained between 30-35 mmHg in order to standardize the effect of hypotension on the injured brain.
as §2

[10] = system: lethal model of polytrauma, HS and TBI; assay: Serum AST and CPK in polytrauma, HS and TBI model (Example 1); format: in vivo, swine; conditions: for Serum aspartate aminotransferase (AST): 3 hours post-treatment
Experimental: as §2

[11] = system: TBI by controlled cortical impact; assay: Brain lesion size, TTC staining, controlled for time (Example 1); format: in vivo, swine; conditions: VPA 150 (150 mg/kg over 3 h); lesion volume divided by time from injury
Source text: as §3

[12] = Plasma VPA levels and pharmacokinetics (Example 1); format: in vivo, swine; conditions: for Clearance / Vd: pig, in vivo, iv; for Vd: read-out: Volume of distribution (Vd); for concentration at 5 h / concentration at 3 h: swine, plasma, intravenous, plasma VPA level; for concentration at 5 h: 5 hours after VPA infusion start
Source text: A separate group of sham animals underwent cannulation and line placement without infliction of polytrauma, hemorrhage or TBI for use in subsequent pharmacokinetic (PK) analysis.

[13] = Serum VPA after IO versus IV infusion (Example 2); format: in vivo; conditions: swine, 150 mg/kg over 3 hours
Experimental: At the end of the shock phase, in order to simulate available resuscitative fluids available in a field care setting, all animals were resuscitated with normal saline via the femoral venous catheter with a standardized volume that was three times the hemorrhaged volume delivered over 1 hour. […] Placement of the needle was confirmed by aspiration of marrow and subsequent flush of 10 mL normal saline without extravasation. […] To simulate a delayed transfer to definitive care, 3 hours after the start of normal saline resuscitation, animals were transfused autologous packed red blood cells that were hemorrhaged earlier in the experiment. Animals were then monitored for another 4 hours to the predetermined end point. […] Arterial blood gases were drawn from the femoral arterial line serially throughout the experiment.
GraphPad Prism v8 was used to analyze data (GraphPad Software, San Diego, Calif.).

[14] = group mean of 5 VPA-treated animals
[15] = individual VPA-treated animals 1-5, dose and regimen not given
[16] = 100 mg/kg, VPA 100 (injured, 100 mg/kg over 3 h)
[17] = 150 mg/kg, VPA 150 (injured, 150 mg/kg over 3 h)

## CCCC(CCC)C(=O)O [VPA, valproic acid]
[1]
  histone acetylation: significant increase in histone acetylation
[2]
  brain lesion size and neurologic recovery: attenuating brain lesion size and improving neurologic recovery
[3]
  adverse hemodynamic effects: does not cause adverse hemodynamic effects
[4]; 100 mg/kg over 2 hours
  adverse hemodynamic effects: without causing any adverse hemodynamic effects
[4]; 150 mg/kg over 3 hours
  adverse hemodynamic effects: without causing any adverse hemodynamic effects
[4]; VPA 150 (150 mg/kg over 3 hours) versus other groups
  mean arterial pressure (MAP) after the treatment: tended to have a higher MAP
[5]; IO group
  survival to the end of the experiment: 100%
[5]; IV group
  survival to the end of the experiment: 100%
[6]
  peak plasma level: 1271 µg/mL
[7]
  survival: survival benefit
[8]; [14]
  Area Under Curve: 616 µg·h/mL
  Maximum Concentration: 145 mg/L
[8]; [15]
  Area Under Curve: 431.4 µg·h/mL and 827.6 µg·h/mL and 635.2 µg·h/mL and 521.1 µg·h/mL and 663.7 µg·h/mL
  Clearance: 17.4 L/h and 7.43 L/h and 9.44 L/h and 13.2 L/h and 10.9 L/h
  Half-life: 1.85 h and 1.65 h and 1.58 h
  Maximum Concentration: 98.12 mg/L and 199.3 mg/L and 142.8 mg/L and 124.5 mg/L
[8]; pig, in vivo, 150 mg/kg, group mean of 5 VPA-treated animals, read-out: Clearance (converted)
  Clearance: 11.2 L/h
[8]; pig, in vivo, 150 mg/kg, group mean of 5 VPA-treated animals, read-out: Half-life (converted)
  Half-life: 1.7 h
[8]; pig, in vivo, 150 mg/kg, individual VPA-treated animals 1-5, dose and regimen not given, read-out: Half-life (converted)
  Half-life: 1.81 h
[9]; 100 mg/kg over 2 hours (faster rate of infusion)
  survival: improved survival
[9]; 100 mg/kg over 3 hours
  survival compared to NS resuscitation: did not
[9]; 150 mg/kg over 3 hours
  survival compared to NS resuscitation: significantly improved survival
[9]; VPA 100: 100 mg/kg IV over 3 hours with NS resuscitation
  survival: 0%
[9]; VPA 100 over 2 h: 100 mg/kg IV over 2 hours with NS resuscitation
  survival: 67%
[9]; VPA 150: 150 mg/kg IV over 3 hours with NS resuscitation, survival to end of experiment
  survival: 83%
[10]; VPA 100 (100 mg/kg over 3 h)
  creatine phosphokinase (CPK), group mean: 1581±321
  Serum aspartate aminotransferase (AST): 95±29
[10]; VPA 100 over 2 h
  creatine phosphokinase (CPK), group mean: 927±233
  Serum aspartate aminotransferase (AST): 101±22
[10]; VPA 150 (150 mg/kg over 3 h)
  creatine phosphokinase (CPK), group mean: 2428±1314
  Serum aspartate aminotransferase (AST): 177±95
[11]
  brain lesion size controlled for time: 4.1 mm^3/min
[12]; 100 mg/kg, 100 mg/kg over 2 h (injured)
  Clearance: 91.7 mL/min
[12]; [16]
  Clearance: 68.3 mL/min
  Vd: 16.1 ± 3.3 L
[12]; 150 mg/kg, Sham VPA (uninjured, 150 mg/kg over 3 h)
  Vd: 12.1 ± 6 L
[12]; [17]
  Clearance: 102 mL/min
  Vd: 24.2 ± 3.8 L
[12]; 100 mg/kg, VPA 100 over 2 h (injured)
  concentration at 5 h: 74 µg/mL
[12]; 100 mg/kg, VPA 100 over 2 h (injured), three hours after start of infusion
  concentration at 3 h: 115 µg/mL
[12]; 150 mg/kg, Sham VPA (uninjured, 150 mg/kg over 3 h), three hours after start of infusion (end of infusion)
  concentration at 3 h: 291 µg/mL
[12]; 150 mg/kg, VPA 150 (injured)
  concentration at 5 h: 114 µg/mL
[12]; 150 mg/kg, VPA 150 (injured, 150 mg/kg over 3 h), three hours after start of infusion (end of infusion)
  concentration at 3 h: 175 µg/mL
[13]; IV group
  AUC: 294 to 356 µg·h/mL
[13]; other: intraosseous (IO needle in the left humeral head), IO group
  AUC: 301 to 470 µg·h/mL

Reference: US20230069590A1, “CONCENTRATED SODIUM VALPROATE FOR RAPID DELIVERY” (priority 2020, published 2023)
